Assay results published in patent publication US20160303156A1 (priority 2014, published 2016).
Counter-ions that a name gives are not always drawn. Marks after values point to notes of the source that are not given here.

Experiments:
[1] = test system: excretion of phenol red (secretory function of the respiratory tract); test: Effect on excretion of phenol red in mice; format: in vivo, Kunming mice; details: for Phenol red concentration: oral gavage 2 days, trachea wash 30 min after i.p. phenol red, n = 10
Experimental: Kunming mice, female:male 1:1, weight 30-40 g, available from Guangdong Medical Laboratory Animal Center. […] Hitachi 3010 UV and visible spectrophotometer. […] After 30 min, the mice were sacrificed, and the trachea was detached. A section of the trachea from the thyroid cartilage to a branch of the trachea was excised, and placed in a test tube containing 3 ml of saline, to which 0.1 ml of a 15% sodium bicarbonate solution was then added. After centrifugation, the supernatant was taken and measured for the OD value at 546 nm. The phenol red content was calculated from a phenol red standard curve.

[2] = test system: citric acid induced cough; test: Inhibition on citric acid induced cough in guinea pig; format: in vivo, Hartley guinea pigs
Experimental: 1.1 Test animals: qualified Hartley guinea pigs, weight 250-300 g, female:male 1:1, available from Guangdong Medical Laboratory Animal Center.
1.3 Instrument: YLS-8A cough and asthma inducing instrument (a product available from Equipment Station of Shandong Academy of Medical Sciences).
The guinea pigs in each group were administered by oral gavage at a dosage of 0.5 ml/100 g of body weight, and equal volume of saline was given to the animals in the blank control group. 1 h after administration by oral gavage, the animals received spray of citric acid for 7 min. After the spray was completed, the cough counts were observed and recorded in ten minutes from the start of the spray (the typical cough is loud and clear and often accompanied by a forward rush).

[3] = test system: ovalbumin induced atopic cough (cough variant asthma); test: Capsaicin induced cough in ovalbumin induced atopic cough (cough variant asthma) model; format: in vivo, Hartley guinea pig; details: ovalbumin-challenged guinea pigs, 7 days dosing, 50 μmol/L capsaicin 1 hr after last dose, coughs in 10 min, n = 10
Experimental: (§1) 2.2 Modeling: except for the normal control group, the guinea pigs in the remaining groups were challenged by intraperitoneally injecting cyclophosphamide at a dosage of 30 mg/kg at day 1, intraperitoneally injecting 1 mL of a suspension containing 2 mg ovalbumin and 100 mg aluminium hydroxide at day 3, and injecting 1 mL of a suspension containing 0.01 mg ovalbumin and 100 mg aluminium hydroxide after 3 weeks. The guinea pigs in the normal control group were intraperitoneally injected with 1 mL of saline. After 3 weeks, all the animals for modeling were challenged by nebulization of a 1% ovalbumin solution for 90 s, and the animals in the normal control group inhaled saline for 90 s by nebulization.
(§2) The cough of guinea pig were counted as follows. 1 hr after the last dose, the guinea pigs were placed in a Buxco cough recorder, and induced to cough by using 1 mL of 50 μmol/L capsaicin, and the cough counts in 10 min (including the nebulization time) were recorded.

[4] = test system: acemecholine (MeCh) induced airway hyperresponsiveness; test: Airway responsiveness (Penh) under MeCh challenge in ovalbumin cough variant asthma model; format: in vivo, Hartley guinea pig; details: Penh % relative to normal saline challenge, n = 10
Experimental: as §1, §2
2.4 Determination of airway responsiveness (AR) in guinea pig: 24 hrs after cough determination, the enhanced pause (Penh) of guinea pig was determined in the Buxco whole body plethysmograph, and the variation in Penh after challenge by nebulization of acemecholine (MeCh) was measured.
The acemecholine (MeCh) concentrations used for challenging were respectively, from low to high, 100 mg/L, 200 mg/L, 400 mg/L, 800 mg/L, and 1600 mg/L. The average Penh upon challenge with each level of MeCh was recorded, and converted into percentages (Penh %) relative to the Penh value upon challenge with normal saline (NS), which was used as an evaluation criterion for AR.

[5] = test system: inflammatory cells in bronchial alveolar lavage fluid; test: Differential leukocyte counts in bronchial alveolar lavage fluid, ovalbumin cough variant asthma model; format: in vivo, Hartley guinea pig; details: BALF
Experimental: as §1, §2
2.5 Bronchoalveolar lavage and differential leukocyte counts in bronchial alveolar lavage fluid (BALF): After AR determination, the guinea pigs were anesthetized with 30 mg/kg of pentobarbital sodium. Then, the neck skin was cut, and a median incision was made on the trachea, in which a tracheal cannula was inserted. Bronchoalveolar lavage was performed with 5 mL of saline. This was repeated 3 times, and the bronchial alveolar lavage fluid was collected. All the bronchial alveolar lavage fluid was centrifuged at 4° C. and 1500 rpm for 10 min, and the supernatant was stored at −80° C. for later use.

[6] = Effect of naringin in combination with other drugs; details: used in combination with naringin

Which Phenol red concentration [1] does the source give for `Nc1c(Br)cc(Br)cc1CN[C@H]1CC[C@H](O)CC1` [Ambroxol, ambroxol] here?
Its Phenol red concentration is 1.55 ± 0.46 ^ μg/ml.

What does the source list for `C[C@@H]1O[C@@H](O[C@H]2[C@H](Oc3cc(O)c4c(c3)O[C@H](c3ccc(O)cc3)CC4=O)O[C@H](CO)[C@@H](O)[C@@H]2O)[C@H](O)[C@H](O)[C@H]1O` [Naringin, naringin]?
Cough relieving effect (in words) ([2]; citric acid induced cough): obvious cough relieving effect; Cough count ([2]; oral gavage, citric acid spray 7 min 1 h after dosing, coughs in ten minutes, n = 8): 22.4 ± 3.7 ^; Effect on excretion of phenol red / sputum reducing effect (in words) [1]: obviously enhance the excretion of phenol red; Phenol red concentration [1]: 1.64 ± 0.67 ^ μg/ml; Cough counts [3]: 12.9 ± 4.3 ^; Airway responsiveness under challenge with MeCh ([4]; MeCh 100 mg/L): 276 ± 69; Airway responsiveness under challenge with MeCh ([4]; MeCh 200 mg/L): 783 ± 147; Airway responsiveness under challenge with MeCh ([4]; MeCh 400 mg/L): 857 ± 108; Airway responsiveness under challenge with MeCh ([4]; MeCh 800 mg/L): 1636 ± 169; Airway responsiveness under challenge with MeCh ([4]; MeCh 1600 mg/L): 2749 ± 253; Reduction of total leukocyte, lymphocyte, neutrophil and eosinophil counts (in words) [5]: significantly reduce; Lymphocyte counts ([5]; guinea pigs, n = 10): 21.5 ± 3.7** 10^7/L; Neutrophil counts ([5]; guinea pigs, n = 10): 30.1 ± 6.5** 10^7/L; Total leukocyte counts ([5]; guinea pigs, n = 10): 135.5 ± 28.6** 10^7/L

For `CN1CCCC(n2nc(Cc3ccc(Cl)cc3)c3ccccc3c2=O)CC1` (centres unmarked) [azelastine hydrochloride], which “Synergistic effect in combination with naringin” value (“Synergistic effect” below) [6] is on record?
Its value is “no synergistic effect”.

With `CN(C)CCC(c1ccc(Cl)cc1)c1ccccn1` (centres unmarked) [chlorpheniramine maleate] as the compound, how does the “Synergistic effect” value [6] read?
The value was “no synergistic effect”.

For `Clc1ccc2c(c1)CCc1cccnc1C2=C1CCNCC1` [desloratadine], which “Synergistic effect” value [6] is on record?
The value was “no synergistic effect”.

For `NC1=NCC2c3ccccc3Cc3ccccc3N12` (centres unmarked) [epinastine hydrochloride], which “Synergistic effect” value [6] is on record?
The value was “no synergistic effect”.

With `CCOC(=O)N1CCC(=C2c3ccc(Cl)cc3CCc3cccnc32)CC1` [loratadine] as the compound, how does the “Synergistic effect” value [6] read?
Its value is “no synergistic effect”.

For `CN(c1nccc(=O)[nH]1)C1CCN(c2nc3ccccc3n2Cc2ccc(F)cc2)CC1` [mizolastine], which “Synergistic effect” value [6] is on record?
Its value is “no synergistic effect”.

For dimenhydrinate hydrochloride, which “Synergistic effect” value [6] is on record?
Its value is “no synergistic effect”.

Which “Synergistic effect” value [6] does the source give for theohydramine hydrochloride here?
The value was “no synergistic effect”.
